The values that follow come from patent US20190247396A1, “DENTAL TREATMENT” (KING'S COLLEGE LONDON, priority 2016, published 2019).

SMILES strings stand for the structures. “Also recorded” adds a separate entry of the source.

For data set [1], the system named is Axin2 (Wnt activity) in 171A4 mouse dental pulp cells. Briefly: In vitro drug release from Kolspon sponge, Axin2 qPCR. The data set is classed as cell-based. Particulars: for Wnt activity (Axin2 qPCR): drug in collagen sponge incubated with cells, 50 nM BIO, 50 nM Tideglusib, vs media or sponge without drug. As for the experimental part:
In vitro drug release from Kolspon sponge was tested. 171A4 cells were plated in 24-well plates and incubated (37° C., 5% CO2/95% air, 100% humidity) for 24 h using standard culture medium. Falcon™ cell culture inserts for use with 24-well plates ([…]) were placed in the wells carrying 96 mm^2 Kolspon cubes either dry or soaked in 30 μl of the drug optimal concentration for 15 and 30 minutes, 1, 6, and 12 hours. The cells were collected with TRIzol and stored at −20° C.
RNA was extracted from the cells using TRIzol (Thermo Fisher Scientific) as recommended by the manufacturer. RNA was quantified using Nanodrop and reverse transcribed into cDNA. Beta-actin was used as housekeeping gene (Forward-[…] (SEQ ID NO 1), Reverse-[…]) (SEQ ID NO 2) and Axin2 for Wnt activity (Forward-[…] (SEQ ID NO 3), Reverse- TGCCCACACTAGGCTGACA (SEQ ID NO 4).

In data set [2] the test system is Axin2 (Wnt activity) in dental pulp cells. Briefly: Induction of Axin2 in vivo, pulp exposure injury model, qPCR of pulp cells. Details: species or system mouse. Particulars: one day after injury and capping; vs control, MTA or collagen sponge. As for the experimental part:
A glass ionomer cement was used to cover the sponge and protect the tooth (FIG. 2G). Specifically, a layer of 3M Ketac-Cem Radiopaque was used as a capping material to seal the injured site. The injury was performed on the two upper first molars. Post-op the mice were given Vetergesic (Buprenorphine—Ceva) at the rate of 0.3 mg/kg intraperitonially as analgesic. The animals were sacrificed after 1 day.
Treated teeth were removed after 24 h along with controls consisting of untreated teeth, MTA only and collagen sponge with no inhibitor.
Molars were extracted using a 21G needle as an elevator to lift them from the alveolar bone and kept in ice cold PBS. Using a 23 scalpel blade the molars were separated at the crown-root junction, so that the pulp chamber could be visualized. Using a 0.6 mm straight tip tweezer the pulp was gently scraped from the pulp chamber and the root canal. The pulp was then placed into cold Sigma RNAlater and stored at −80° C.
The extracted cells were tested for expression of Axin2 by qPCR as described in Example 1 (FIG. 1E). Expression of Axin2 was 3× higher in inhibitor treated pulp cells when compared to controls (FIG. 1E).
In general terms: Real-time PCR tracks product formation cycle by cycle.

Data set [3] relates to mouse maxillary first molars. Put plainly: Reparative dentine formation after pulp exposure, micro-CT mineral analysis. The data set is classed as in vivo. As for the experimental part: T filled with mineral=0.0017 mg.
Data set [4] concerns mouse maxillary first molars. Particulars: in vivo.
Method: (§3) To test the induction of Axin2 in vivo, an injury model was developed. Mice were anaesthetized with a solution of Hypnorm (Fentanyl/fluanisone—VetaPharma Ltd.), water and Hypnovel (Midazolam—Roche) in the ratio 1:2:1 at 10 ml/kg by an intraperitoneal injection. Experimental tooth damage was created by drilling and making 0.13 mm holes in mouse maxillary first molars to expose the pulp. A rounded carbide bur FG ¼ coupled to a high speed hand piece was used to access the dentine. Once the bur cut exposed the dentine, a 30G needle was used to penetrate the pulp.
(§4) In order to protect the pulp from external contamination and stimulate dentine repair, the injury was capped either with ProRoot Mineral Trioxide Aggregate (MTA) (Maillfer Dentsply), or Kolspon (Fish Collage Type 1—Eucare Ltd) alone, or in association with 50 nM BIO (SIGMA), 5 μM CHIR99021 (SIGMA), or 50 nM Tideglusib (SIGMA) dissolved and diluted in DMSO, in contact with the pulp. Pieces of Kolspon were cut to size and soaked in solutions of the three inhibitors before being physically placed into the holes, in contact with the pulp.
(§5) The model described in Example 2 was then used to examine the effect on the formation of reparative dentine. Molars were drilled and sponges inserted and left as described in Example 2, this time for 4-6 weeks before the mice were sacrificed.
(§6) After 4 weeks decalcification in 19% EDTA the teeth were embedded in wax blocks and sectioned using 0.8 μm thickness. Sections were stained using Masson's Trichrome to reveal new dentine formation.
The subject of data set [5] is human deciduous tooth dental pulp cells. Particulars: cited from earlier work.
Data set [6] relates to mouse maxillary first molars. Briefly: Reparative dentine formation after pulp exposure, Masson's Trichrome histology.
Method: as §3, §4, §5, §6
The test system of data set [7] is mouse maxillary first molars. Briefly: Reactionary dentine formation, non-exposed pulp injury model, Masson's Trichrome histology. Particulars: for Structure of reactionary dentine (histology): 4 weeks after injury without pulp exposure. As for the experimental part:
(§1) To investigate the effect of modulation of Wnt signaling on reactionary dentine formation, a reproducible tooth damage model was established. 6 weeks old, Axin2^−CreERT2; Rosa26−mTmG (fl/+) and GPR1777(Wntless)^−pCAGCreERT2 (fl/fl) mice were injected intraperitoneally with three doses of tamoxifen (2 mg per 30 g mouse, SIGMA), one dose a day. 5 days after the last tamoxifen injection, the height of the middle cusp of mouse maxillary first molars were reduced without exposing the dental pulp, leaving a band of dentine to protect the inner pulp tissue (FIG. 5).
The exposed dentine was capped either with calcium hydroxide (Dycal; Dentsply) or mineral trioxide aggregate (MTA) (ProRoot MTA; Dentsply), or dry collagen sponge (Kolspon-Fish Collage Type 1; Eucare Ltd), or collagen sponge soaked in dimethyl sulfoxide (DMSO; SIGMA), or 50 nM Tideglusib, or 1 μM LY2157299, or 1 μM Dorsomorphin. All drugs were dissolved and diluted in DMSO. A layer of glass ionomer cement (Ketac-Cem Radiopaque; 3M ESPE) was used as a sealing material. Vetergesic (Buprenorphine—Ceva) was injected to all mice post-operative at the rate of 0.3 mg/kg by intraperitoneal injection as analgesic. The animals were sacrificed after 1 day and 4 weeks. A total of 14 genetically-modified mice (28 damaged molars) and 26 CD1 mice (52 molars) were used.
After 4 weeks decalcification in 19% EDTA pH 6, the teeth were embedded in wax blocks and sectioned at 8 μm thickness. Sections were histologically stained using Masson's Trichrome.
Sequestered latent BMP and TGF-β proteins present in the dentine matrix have been implicated in tertiary dentine formation following damage, mainly based on results obtained from in vitro experiments. The effect of inhibition of these signalling pathways in was investigated in the in vivo model of reactionary dentine formation described in Example 5 by utilising small molecules to inhibit these signalling pathways. The small molecule LY2157299 is a TGF-β type I receptor kinase inhibitor and the small molecule Dorsomorphin is an inhibitor of BMP type I receptors ALK2, ALK3 and ALK6 (Bhola et al. 2013, Yu et al. 2008). Both compounds were first tested for cytotoxicity and effectiveness of signalling pathway blocking in vitro using 17IA4 cells. The first upper molars of CD1 mice were damaged to stimulate reactionary dentine formation and a collagen sponge was soaked in either 1 μM LY2157299 or 1 μM Dorsomorphin was used as a delivery vehicle. The sponges were placed on the exposed dentine and sealed with a layer of glass ionomer.

The test system of data set [8] is Axin2 (Wnt activity) in dental pulp. Briefly: Axin2 qPCR of dental pulp one day after dentine injury without pulp exposure. The data set is classed as in vivo, mouse. As for the experimental part:
All drugs were dissolved and diluted in DMSO.
(§2) Since Wnt/β-catenin signaling is required for reparative dentine formation we investigated if this pathway plays a role in reactionary dentine formation. The small molecule GSK3 antagonist Tideglusib was delivered on collagen sponges at the site of damage and sealed with glass ionomer. Sponge alone and MTA sealed with glass ionomer were used as controls. To identify whether cells responded to the drug, TCF/Lef:H2B-GFP, Axin2^−CreERT2; Rosa26−mTmG flox/+ and CD1 wild type mice were used. TCF/Lef:H2B-GFP reporter mice allowed the visualisation of Wnt active cells (ie. Cells receiving a Wnt signal), Axin2^−CreERT2; Rosa26−mTmG flox/+ mice were used to lineage trace Axin2-expressing cells and gene expression analysis via qPCR (as described in Example 1) was performed on pulp cells from CD1 mouse molars. The first molars of genetically modified mice were collected 1 day after the injury and immunohistochemistry was performed. Deparaffinised sections were retrieved with sodium citrate (pH 6) and incubated with chicken polyclonal anti-GFP antibody (1:500; Abcam, Cambridge, Mass., USA; ab13970) overnight at 4° C. Sections were washed and exposed to appropriate biotinylated secondary antibody, then horseradish peroxidase (HRP)-conjugated streptavidin-biotin antibody and washed with PBST. […]

Data set [9] deals with TCF/Lef:H2B-GFP and Axin2-CreERT2 Wnt responsive cells. Put plainly: GFP immunohistochemistry of Wnt responsive cells in reporter mice 1 day after injury. The data set is classed as in vivo, mouse.
Source text: as §2, with “PBST. Immunoreactivity was visualized with MenaPath green chromogen kit (Bio SB).” for “PBST.”

Data set [10] deals with mouse maxillary first molars. Put plainly: Reactionary dentine formation, non-exposed pulp injury model, micro-CT mineral content and linear measurement. The data set is classed as in vivo. Particulars: 50 nM, 4 weeks. As for the experimental part:
as §1
The exposed dentine was capped either with calcium hydroxide (Dycal; Dentsply) or mineral trioxide aggregate (MTA) (ProRoot MTA; Dentsply), or dry collagen sponge (Kolspon-Fish Collage Type 1; Eucare Ltd), or collagen sponge soaked in dimethyl sulfoxide (DMSO; SIGMA), or 50 nM Tideglusib, or 1 μM LY2157299, or 1 μM Dorsomorphin. All drugs were dissolved and diluted in DMSO. […]
Mice upper molars were dissected, fixed in 4% paraformaldehyde (PFA) for 24-hours at 4° C. and scanned using a Bruker Skyscan1272 micro-CT (pCT) scanner. […] The dentine thickness was measured using the “Line” function of the software. For the dentine thickness-analysis the distance between the center of the roof of the middle pulp horn and the floor of the injured dentine margin was measured. […] The region measured comprised only the site of injury. […]

As to `O=C1Nc2cc(Br)ccc2/C1=C1/Nc2ccccc2/C1=N\O` [BIO, 6-bromoindirubin-3′-oxime], the “BIO induction of Axin2 expression relative to CHIR99021 and Tideglusib” value in data set [1] (FIG. 1D) was 4 ×. The “Wnt activity (Axin2 qPCR)” value in data set [1] was “Wnt activity increases after 30 minutes of incubation and remains elevated”. Besides, the “Wnt activity / Axin2 expression (qPCR) in dental pulp cells” value in data set [2] is listed as “significant upregulation of Wnt activity”. For the same molecule, the “MicroCT appearance of injury site” value in data set [3] (4 weeks) was “mature mineral at the injury site”; in data set [3] (6 weeks), “injury site filled with mature dentine”. Also, the Pulp vitality entry in data set [4] was “dental pulp remained vital”. Besides, the “Differentiation state of dental pulp cells” value in data set [5] was “maintain human deciduous tooth dental pulp cells in the undifferentiated state”. For the same molecule, in [5], the “Proliferation of dental pulp cells” value is on record as “reduce proliferation”. Besides, the results for the “Histology of reparative dentine formation” value in data set [6] (4 weeks) and in data set [6] (6 weeks) were “dense dentine formation at the injury site with vital pulp” and “filled the whole injury site from occlusal to pulp chamber roof; also recorded: new mature dentine formed where the sponge was placed filling the injury site”, respectively.

Take `Cc1cccc(-c2nn3c(c2-c2ccnc4ccc(C(N)=O)cc24)CCC3)n1` [LY2157299]: the “Structure of reactionary dentine (histology)” value in [7] is listed as “disorganised (globular) dentine; also recorded: atypical globular dentine without tubular reactionary dentine features”.

In the case of `O=c1sn(-c2cccc3ccccc23)c(=O)n1Cc1ccccc1` [Tideglusib, 4-Benzyl-2—(naphthalen-1-yl)-[1,2,4]thiadiazolidine-3,5-dione], in data set [1], the “Wnt activity (Axin2 qPCR)” value was “Wnt activity increases after 30 minutes of incubation and remains elevated”. Besides, the “Wnt activity / Axin2 expression (qPCR) in dental pulp cells” value in [2] is reported as “significant upregulation of Wnt activity”. Besides, the “MicroCT appearance of injury site” value in data set [3] (4 weeks) is reported as “mature mineral at the injury site”; in data set [3] (6 weeks), “mature reparative dentine formed at the injury site almost at the same Radiopacity as the primary/secondary dentine”. In addition, the “Amount of reactionary dentine formation (histology) compared with controls” value in [7] (50 nM in collagen sponge, 4 weeks) is given as “larger reactionary dentine secretion; also recorded: enhanced reactionary dentine formation”. Further, in [7], the “Structure of reactionary dentine (histology)” value is on record as “normal tubular reactionary dentine formation”. In addition, the “Pulp / tooth vitality” value in [7] (mouse, in vivo) is reported as “dental pulp remained vital”. The “Wnt activity / early-response Axin2 expression (qPCR)” value in [8] (1 day after injury without pulp exposure) is recorded as “significant upregulation of Wnt activity”. Also, the “Axin2 expression compared to controls” value in [8] (1 day after injury, FIG. 8E) was 2 fold. In addition, in [9] (Axin2-CreERT2, Rosa26-mTmG mice, vs collagen sponge only), the “Axin2+ (GFP-positive) cells in the dental pulp” value was “increase of TCF/LEF+cells and Axin2+ cells; also recorded: more GFP-positive cells”. For the same molecule, the “Wnt responsive (TCF/LEF+, GFP) cells under the injury” value in [9] (TCF/Lef:H2B-GFP reporter mice, vs collagen sponge alone) is given as “increase of TCF/LEF+cells; also recorded: increased local response to Wnt signalling”. Also, the “Mineral band thickness at the site of injury (linear measurement) vs collagen sponge alone” value in data set [10] (FIG. 9E) is reported as “thicker mineral band”. Also, the “Mineral content under the injury site (micro-CT)” value in data set [10] (vs collagen sponge alone, FIG. 9D) is reported as “high mineral content; also recorded: increase of mature mineral formation”. Moreover, in [4], the Pulp vitality entry is recorded as “dental pulp remained vital”. Also, the “Histology of reparative dentine formation” value in data set [6] (4 weeks) was “dense dentine formation at the injury site with vital pulp”; in data set [6] (6 weeks), “filled the whole injury site from occlusal to pulp chamber roof; also recorded: complete repair with vital dental pulp”.
